# Reference: patent publication US6828440B2, “Spiroindene and spiroindane compounds” (Euro-Celtique, S.A., priority 2001, dated 2004)
# pKi: −log10 of the molar value.
# Target: T1, human opioid receptor-like receptor (ORL-1) (Homo sapiens, UniProt P41146)
# T1 construct: host or cells: HEK-293
# Assay: Nociceptin affinity at the ORL1 receptor ([35S]GTPgS binding, membranes from recombinant HEK-293 cells)
# Conditions: ORL-1 membranes from recombinant HEK-293 cells; GraphPad PRISM curve fitting; read-out: Nociceptin Affinity calc Ki
# Procedure: Nociceptin affinity at the ORL1 receptor for preferred compounds was obtained using the following assay:
# Membranes from recombinant HEK-293 cells expressing the human opioid receptor-like receptor (ORL-1) (Receptor Biology) were prepared by lysing cells in ice-cold hypotonic buffer (2.5 mM MgCl2, 50 mM HEPES, pH 7.4) (10 ml/10 cm dish) followed by homogenization with a tissue grinder/teflon pestle. Membranes were collected by centrifugation at 30,000× g for 15 min at 4° C. and pellets resuspended in hypotonic buffer to a final concentration of 1-3 mg/ml. Protein concentrations were determined using the BioRad protein assay reagent with bovine serum albumen as standard. Aliquots of the ORL-1 receptor membranes were stored at −80° C.
# Functional SGTPgS binding assays were conducted as follows. ORL-1 membrane solution was prepared by sequentially adding final concentrations of 0.066 mg/ml ORL-1 membrane protein, […], […] and 0.20 nM [^35S]GTPgS to binding buffer (100 mM NaCl, 10 mM MgCl2, 20 mM HEPES, pH 7.4) on ice. The prepared membrane solution ([…]) was transferred to 96-shallow well polypropylene plates containing […] of 20× concentrated stock solutions of agonist prepared in DMSO. Plates were incubated for 30 min at room temperature with shaking. Reactions were terminated by rapid filtration onto 96-well Unifilter GF/B filter plates (Packard) using a 96-well tissue harvester (Brandel) and followed by three filtration washes with […] ice-cold binding buffer (10 mM NaH2PO4, 10 mM Na2HPO4, pH 7.4). Filter plates were subsequently dried at 50° C. for 2-3 hours. […] scintillation cocktail (BetaScint; Wallac) was added and plates were counted in a Packard Top-Count for 1 min/well.
# Data was analyzed using the curve fitting functions in GraphPad PRISMÔ, v.
# T1 sequence (P41146 whole entry): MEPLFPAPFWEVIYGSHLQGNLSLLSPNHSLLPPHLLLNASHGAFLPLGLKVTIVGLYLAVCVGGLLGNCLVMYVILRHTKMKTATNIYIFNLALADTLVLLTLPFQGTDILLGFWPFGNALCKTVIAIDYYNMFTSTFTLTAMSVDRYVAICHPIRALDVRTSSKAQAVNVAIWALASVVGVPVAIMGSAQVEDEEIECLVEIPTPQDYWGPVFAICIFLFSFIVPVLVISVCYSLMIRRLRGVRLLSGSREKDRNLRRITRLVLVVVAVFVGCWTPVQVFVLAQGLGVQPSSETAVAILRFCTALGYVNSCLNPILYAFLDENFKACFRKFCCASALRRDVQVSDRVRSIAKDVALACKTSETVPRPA
row,Compound,pKi
1,"c1ccc2c(c1)CC(N1CCC3(CCc4ccccc43)CC1)C2 [1-(1,3-dihydroinden-2-yl)-spiro[piperidine-4,1′-indane]]",< 5.00
2,"C1=CC2(CCN(C3Cc4ccccc4C3)CC2)c2ccccc21 [1-(1,3-dihydroinden-2-yl)-spiro[piperidine-4,1′-indene]]",5.07
3,"C1=CC2(CCN(C3CCc4ccccc4C3)CC2)c2ccccc21 (stereo not shown) [1-(2-[1,2,3,4-tetrahydronaphthyl])-spiro[piperidine-4,1′-indene]]",5.92
4,"c1ccc(CCN2CCC3(CCc4ccccc43)CC2)cc1 [1-(2-phenyl-ethyl)-spiro[piperidine-4,1′-indane]]",6.04
5,"C1=CC2(CCN(CCC(c3ccccc3)c3ccccc3)CC2)c2ccccc21 [1-(3,3-Bis(phenyl)propyl)-spiro[piperidine-4,1′-indene]]",7.38
6,"CC1(C)COC2(CCC(N3CCC4(CCc5ccccc54)CC3)CC2)OC1 [1-(3,3-dimethyl-1,5-dioxaspiro[5.5]undeca-9-yl)-spiro[piperidine-4,1′-indane]]",< 5.00
7,"CC1(C)COC2(CCC(N3CCC4(C=Cc5ccccc54)CC3)CC2)OC1 [1-(3,3-dimethyl-1,5-dioxaspiro[5.5]undeca-9-yl)-spiro[piperidine-4,1′-indene]]",< 5.00
8,"Fc1ccc(C(CCCN2CCC3(CCc4ccccc43)CC2)c2ccc(F)cc2)cc1 [1-(4,4-Bis(p-fluorophenyl)butyl)-spiro[piperidine-4,1′-indane]]",< 5.00
9,"CC(C)C1CCC(N2CCC3(CCc4ccccc43)CC2)CC1 (stereo not shown) [1-(4-(1-methylethyl)-cyclohexyl)-spiro[piperidine-4,1′-indane]]",6.30
10,"CCCC1CCC(N2CCC3(CCc4ccccc43)CC2)CC1 (stereo not shown) [1-(4-propyl-cyclohexyl)-spiro[piperidine-4,1′-indane]]",5.65
11,"CC(C)CCC(C)N1CCC2(CCc3ccccc32)CC1 (stereo not shown) [1-(5-methylhex-2-yl)-spiro[piperidine-4,1′-indane]]",6.17
12,"CC(C)CCC(C)N1CCC2(C=Cc3ccccc32)CC1 (stereo not shown) [1-(5-methylhex-2-yl)-spiro[piperidine-4,1′-indene]]",6.45
13,"c1ccc2c(c1)CCc1ccccc1C2N1CCC2(CCc3ccccc32)CC1 [1-(10,11-Dihydro-5H-dibenzo[a,d]-cyclohepten-5-yl)-spiro[piperidine-4,1′-indane]]",< 5.00
14,"C1=CC2(CCN(C3c4ccccc4CCc4ccccc43)CC2)c2ccccc21 [1-(10,11-Dihydro-5H-dibenzo[a,d]-cyclohepten-5-yl)-spiro[piperidine-4,1′-indene]]",< 5.00
15,"c1ccc(CN2CCC3(CCc4ccccc43)CC2)cc1 [1-(benzyl)-spiro[piperidine-4,1′-indane]]",6.06
16,"c1ccc2c(c1)CCC21CCN(C2CCCCCCC2)CC1 [1-(cyclooctyl)-spiro[piperidine-4,1′-indane]]",6.29
17,"C1=CC2(CCN(C3CCCCCCC3)CC2)c2ccccc21 [1-(cyclooctyl)-spiro[piperidine-4,1′-indene]]",6.30
18,"c1ccc2c(c1)CCC21CCN(CC2CCCCCCC2)CC1 [1-(cyclooctylmethyl)-spiro[piperidine-4,1′-indane]]",6.81

row,Compound,pKi
1,"C1=CC2(CCN(CC3CCCCCCC3)CC2)c2ccccc21 [1-(cyclooctylmethyl)-spiro[piperidine-4,1′-indene]]",6.51
2,"c1ccc2c(c1)CCC21CCN(C2CCC3CCCCC3C2)CC1 (stereo not shown) [1-(decahydro-2-naphthyl)-spiro[piperidine-4,1′-indane]]",5.50
3,"C1=CC2(CCN(C3CCC4CCCCC4C3)CC2)c2ccccc21 (stereo not shown) [1-(decahydro-2-naphthyl)-spiro[piperidine-4,1′-indene]]",5.89
4,"c1ccc2c(c1)CCC21CCN(Cc2cccc3ccccc23)CC1 [1-(naphth-1-yl-methyl)-spiro[piperidine-4,1′-indane]]",6.84
5,"O=C1Cc2ccccc2C12CCN(Cc1ccc3ccccc3c1)CC2 [1-(naphth-2-yl-methyl)-spiro[piperidine-4,1′-(2-oxo)-indane]]",7.08
6,"O=C1CC2(CCN(Cc3ccc4ccccc4c3)CC2)c2ccccc21 [1-(naphth-2-yl-methyl)-spiro[piperidine-4,1′-(3-oxo)-indane]]",6.38
7,"c1ccc2cc(CN3CCC4(CCC5CCCCC54)CC3)ccc2c1 (stereo not drawn) [1-(naphth-2-yl-methyl)-spiro[piperidine-4,1′-cis-3a, 4,5,6,7,7a-hexahydroindane]]",6.51
8,"c1ccc2c(c1)CCC21CCN(Cc2ccc3ccccc3c2)CC1 [1-(naphth-2-yl-methyl)-spiro[piperidine-4,1′-indane]]",7.46
9,"C1=CC2(CCN(Cc3ccc4ccccc4c3)CC2)c2ccccc21 [1-(naphth-2-yl-methyl)-spiro[piperidine-4,1′-indene]]",7.44
10,"C1=CC2(CCN(C3CC4CCC3C4)CC2)c2ccccc21 (stereo not shown) [1-(norbornan-2-yl)-spiro[piperidine-4,1′-indene]]",5.19
11,"c1ccc2c(c1)CCC21CCN(C2C3CCC2CC3)CC1 (stereo not shown) [1-(norbornan-7-yl)-spiro[piperidine-4,1′-indane]]",6.04
12,"c1ccc(COc2ccc(CN3CCC4(CCc5ccccc54)CC3)cc2)cc1 [1-(p-benzyloxybenzyl)-spiro[piperidine-4,1′-indane]]",6.06
13,"C1=CC2(CCN(Cc3ccc(OCc4ccccc4)cc3)CC2)c2ccccc21 [1-(p-benzyloxybenzyl)-spiro[piperidine-4,1′-indene]]",5.81
14,"N#Cc1ccc(CN2CCC3(CCc4ccccc43)CC2)cc1 [1-(p-cyano-benzyl)-spiro[piperidine-4,1′-indane]]",5.82
15,"c1ccc(-c2ccc(CN3CCC4(CCc5ccccc54)CC3)cc2)cc1 [1-(p-phenylbenzyl)-spiro[piperidine-4,1′-indane]]",5.92
16,"CC(C)C1CCC(N2CCC3(C=Cc4ccccc43)CC2)CC1 (stereo not shown) [1-[4-(2-propyl)-cyclohexyl]-spiro[piperidine-4,1′-indene]]",6.53
17,"c1ccc2c(c1)CCC21CCN(C2CC3CCC2C3)CC1 (stereo not shown) [1-[norbornan-2-yl]-spiro[piperidine-4,1′-indane]]",5.14
18,"C1=CC2(CCN(C3CCCCCCCCC3)CC2)c2ccccc21 [1-cyclodecyl-spiro[piperidine-4,1′-indene]]",6.37

# Target: Mu opioid receptor (Homo sapiens, UniProt P35372)
# Sequence (P35372 whole entry, species assumed): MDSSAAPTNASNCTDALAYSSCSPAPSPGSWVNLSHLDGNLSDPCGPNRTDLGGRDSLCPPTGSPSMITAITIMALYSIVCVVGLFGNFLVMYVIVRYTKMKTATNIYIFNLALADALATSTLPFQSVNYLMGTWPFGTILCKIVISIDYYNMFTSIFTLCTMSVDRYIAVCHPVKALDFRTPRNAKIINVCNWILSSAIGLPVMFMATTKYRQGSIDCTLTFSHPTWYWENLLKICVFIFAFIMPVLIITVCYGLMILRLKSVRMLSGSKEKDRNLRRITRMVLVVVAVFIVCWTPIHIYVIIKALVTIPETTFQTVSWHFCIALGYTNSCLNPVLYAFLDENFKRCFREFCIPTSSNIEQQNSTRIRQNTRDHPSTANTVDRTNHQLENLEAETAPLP
# Assay: Affinity at the μ receptor ([35S]GTPγS binding, membranes)
# Conditions: GraphPad PRISM curve fitting, read-out: Mu Receptor Affinity calc Ki
# Procedure: Affinity at the μ receptor for compounds was obtained according to the following assay:
# Mu opioid receptor membrane solution was prepared by sequentially adding final concentrations of […] of the desired membrane protein, 10 μg/ml saponin, 3 μM GDP and 0.20 nM [^35S]GTPγS to binding buffer (100 mM NaCl, 10 mM MgCl2, 20 mM HEPES, pH 7.4) on ice. The prepared membrane solution (190 μl/well) was transferred to 96-shallow well polypropylene plates containing 10 μl of 20× concentrated stock solutions of agonist prepared in DMSO. Plates were incubated for 30 min at room temperature with shaking. Reactions were terminated by rapid filtration onto 96-well Unifilter GF/B filter plates (Packard) using a 96-well tissue harvester (Brandel) and followed by three filtration washes with 200 μl ice-cold binding buffer (10 mM NaH2PO4, 10 mM Na2HPO4, pH 7.4). Filter plates were subsequently dried at 50° C. for 2-3 hours. Fifty μl/well scintillation cocktail (MicroScint20, Packard) was added and plates were counted in a Packard Top-Count for 1 min/well.
# Data were analyzed using the curve fitting functions in GraphPad PRISM™, v.3.0 and the results for several compounds are set forth in table 2 below: […]
row,Compound,pKi
1,"CC(C)C1CCC(N2CCC3(CCc4ccccc43)CC2)CC1 (stereo not shown) [1-(4-(1-methylethyl)-cyclohexyl)-spiro[piperidine-4,1′-indane]]",6.03
2,"C1=CC2(CCN(C3CCCCCCC3)CC2)c2ccccc21 [1-(cyclooctyl)-spiro[piperidine-4,1′-indene]]",5.69
3,"c1ccc2c(c1)CCC21CCN(Cc2cccc3ccccc23)CC1 [1-(naphth-1-yl-methyl)-spiro[piperidine-4,1′-indane]]",5.95
4,"c1ccc2c(c1)CCC21CCN(Cc2ccc3ccccc3c2)CC1 [1-(naphth-2-yl-methyl)-spiro[piperidine-4,1′-indane]]",6.23
